According to PubChem BioAssay AID1845213 (Molecular Pharmacology Branch, DTP, NCI, 2023):
Activity calls are given as the source filed them. Rule for the calls: active = viability on the fitted dose curve at most 10% of control; inactive = the rest.

Test system: NCI-H841 complex tumor spheroid viability
Assay: Anticancer human tumor NCI-H841 cell line growth inhibition;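 for IC50: spheroids exposed to compounds for 7 days before readout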;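 for viability, T/C: spheroids exposed to compounds for 7 days before readout; 100% = DMSO vehicle control wells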
Settings: for IC50: curve of first compound; for viability, T/C: stronger effect = lower value
Summary of the method: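 Complex spheroids of malignant cells with endothelial cells and mesenchymal stem cells; agents alone or combined, from near clinical Cmax (or 10 microM if unknown) down in half-log steps, 0.25% DMSO final.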

[1] = second compound 1 µM, first compound 0.0316 µM
[2] = second compound 1 µM, first compound 0.1 µM
[3] = second compound 1 µM, first compound 0.316 µM
[4] = second compound 1 µM, first compound 1 µM
[5] = second compound 1 µM, first compound 3.16 µM
[6] = second compound 1 µM, first compound 10 µM
[7] = second compound 3.16 µM, first compound 0.0316 µM
[8] = second compound 3.16 µM, first compound 0.1 µM
[9] = second compound 3.16 µM, first compound 0.316 µM
[10] = second compound 3.16 µM, first compound 1 µM
[11] = second compound 3.16 µM, first compound 3.16 µM
[12] = second compound 3.16 µM, first compound 10 µM
[13] = second compound 10 µM, first compound 0.0316 µM
[14] = second compound 10 µM, first compound 0.1 µM
[15] = second compound 10 µM, first compound 0.316 µM
[16] = second compound 10 µM, first compound 1 µM
[17] = second compound 10 µM, first compound 3.16 µM
[18] = second compound 10 µM, first compound 10 µM
[19] = second compound 31.6 µM, first compound 0.0316 µM
[20] = second compound 31.6 µM, first compound 0.1 µM
[21] = second compound 31.6 µM, first compound 0.316 µM
[22] = second compound 31.6 µM, first compound 1 µM
[23] = second compound 31.6 µM, first compound 3.16 µM
[24] = second compound 31.6 µM, first compound 10 µM
[25] = second compound 100 µM, first compound 0.0316 µM
[26] = second compound 100 µM, first compound 0.1 µM
[27] = second compound 100 µM, first compound 0.316 µM
[28] = second compound 100 µM, first compound 1 µM
[29] = second compound 100 µM, first compound 3.16 µM
[30] = second compound 100 µM, first compound 10 µM

SMILES	IC50 (second compound 1 µM) [nM]	IC50 (second compound 3.16 µM) [nM]	IC50 (second compound 10 µM) [nM]	IC50 (second compound 31.6 µM) [nM]	IC50 (second compound 100 µM) [nM]	viability, T/C [1] [%]	viability, T/C [2] [%]	viability, T/C [3] [%]	viability, T/C [5] [%]	viability, T/C [6] [%]	viability, T/C [7] [%]	viability, T/C [8] [%]	viability, T/C [9] [%]	viability, T/C [10] [%]	viability, T/C [11] [%]	viability, T/C [12] [%]	viability, T/C [13] [%]	viability, T/C [14] [%]	viability, T/C [15] [%]	viability, T/C [17] [%]	also measured
CC(C)n1c(=O)n(C)c2cnc3cc(F)c(-c4ccc(OCCCN5CCCCC5)nc4)cc3c21 + Cn1nnc2c(C(N)=O)ncn2c1=O	> 10000	> 10000	> 10000	8520	3910	91.3	93.5	95.3	85.8	57.5	94.5	96.1	99.9	90.5	89.3	77.4	93.1	94.1	94.8	88	viability, T/C [4]: 92.3%; outcome [16]: inactive; viability, T/C [18]: 62.4%; viability, T/C [19]: 91%; viability, T/C [20]: 92.2%; viability, T/C [21]: 87.9%; viability, T/C [22]: 88.4%; viability, T/C [23]: 76.2%; viability, T/C [24]: 45.8%; viability, T/C [25]: 84.4%; viability, T/C [26]: 82.8%; viability, T/C [27]: 77.9%; viability, T/C [28]: 75.9%; viability, T/C [29]: 52.9%; viability, T/C [30]: 35.5%
COc1ccc([C@@H](O)c2cc(-c3ncnc4cc(N5CCOCC5)ccc34)c(F)cc2Cl)nn1 + Cn1nnc2c(C(N)=O)ncn2c1=O	2040	2010	2050	2270	1820	100	99.1	92.7	36	7.89	102	104	97.1	70.7	36.4	8.99	103	105	91	32.1	outcome [4]: inactive; viability, T/C [16]: 80.1%; viability, T/C [18]: 9.08%; viability, T/C [19]: 97.5%; viability, T/C [20]: 99.7%; viability, T/C [21]: 95.3%; viability, T/C [22]: 79.3%; viability, T/C [23]: 38.1%; viability, T/C [24]: 8.74%; viability, T/C [25]: 97.5%; viability, T/C [26]: 100%; viability, T/C [27]: 87%; viability, T/C [28]: 71%; viability, T/C [29]: 31.5%; viability, T/C [30]: 7.13%
